Results on two molecules are retold here after US20130165652A1, “NOVEL HETEROCYCLIC COMPOUND, AND COMPOSITION FOR TREATING INFLAMMATORY DISEASES USING SAME” (NEOPHARM CO.,LTD., priority 2010, published 2013).

Data set [1] deals with T1, PAR-2 (Homo sapiens, UniProt P55085).
T1 sequence (P55085 26-397): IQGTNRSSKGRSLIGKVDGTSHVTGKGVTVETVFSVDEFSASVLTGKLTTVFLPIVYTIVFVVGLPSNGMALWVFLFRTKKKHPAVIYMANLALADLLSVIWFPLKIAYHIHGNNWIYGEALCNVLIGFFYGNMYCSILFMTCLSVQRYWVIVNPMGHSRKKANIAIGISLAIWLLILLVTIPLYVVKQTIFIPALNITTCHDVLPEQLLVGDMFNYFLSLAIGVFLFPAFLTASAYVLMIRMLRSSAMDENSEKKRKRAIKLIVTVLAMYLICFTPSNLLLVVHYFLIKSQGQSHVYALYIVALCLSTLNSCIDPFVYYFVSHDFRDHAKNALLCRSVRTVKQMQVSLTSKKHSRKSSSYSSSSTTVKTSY
Description: Confocal microscopy of PAR-2 activation in KNRK-PAR-2 cell line. In kind it is cell-based. The following applies: KNRK-PAR-2 cells; [trypsin]=11 μM, [SLIGKV]=100 μM, [Compound 45]=200 μM. Here is the method: In order to visually confirm the activation of the PAR-2, a cell line having the following structure was prepared based on existing references, and activation of the PAR-2 was observed using a confocal microscope. As the cell line, Kirsten Murine Sarcoma Virus transformed rat kidney epithelial cell (KNRK cell) was used. In this cell line, the PAR-2 may not be expressed in a normal state. Each of the N-terminals of […] were tagged with Flag epitope, and each of the C-terminals were tagged with Myc epitope, such that a stable transfected cell was constructed. […] In a state in which the PAR-2 was not activated, Flag and Myc were double stained, such that a yellow image was shown in a merged image. However, in the case in which the PAR-2 was activated, a red image was shown while the Flag is separated.

A short description of another data set: Cytotoxicity (CC50). In kind it is cell-based.
Data set [2] addresses T1, PAR-2. Briefly: PathHunter β-arrestin GPCR assay. In kind it is cell-based. Further details: purchased DiscoveRx Corp. The following applies: β-arrestin accumulation; SKIGKV-NH2 (10 μM); samples 1000 to 50 μM. Here is the method: An in vitro assay protocol capable of detecting activation of the PAR-2 was additionally introduced in addition to a calcium immobilization assay to measure the activity of the selected materials. First, the PAR-2 inhibitory activities of two kinds of samples were measured using a PathHunter™ β-arrestin GPCR assay kit (DiscoveRx Corp.) capable of detecting accumulation of β-arrestin, which is an intracellular reaction firstly generated by the activation of the PAR-2. Experiments were conducted by diluting concentrations of the samples by one-half, ranging from 1000 to 50 μM and SKIGKV-NH2 (10 μM) was treated with the PAR-2 […]. As an experimental result, suppression of β-arrestin was confirmed in both of the two kinds of samples at a concentration of 500 μM. As a measurement result, it was observed that IC50 values were different from those in calcium immobilization assay (See Table 1).

Data set [3] addresses T1, PAR-2. Briefly: Calcium immobilization assay (Calcium-4 assay kit). Type of data set: cell-based. As to conditions: HCT-15 cells over-expressing PAR-2; activating peptide (AP) as PAR-2 activating agent; inhibitor treated for 5 minutes before AP. Here is the method:
In order to evaluate inhibitory activity of the synthesized materials against the PAR-2, primarily, an assay system in which a concentration of calcium ions in cell may be measured in real time was constructed, and evaluation was conducted using this system. The PAR-2 is a kind of G-protein coupled receptors (GPCR), and when the PAR-2 is activated in cell, phospholipase C-b (PLC-b) decomposes phosphatidylinositol 4,5-bisphosphate (PIP2) into inositol triphosphate (IP3) and diacyl glycerol (DAG) while being activated. IP3 generated at this time stimulates secretion of calcium ions in endoplasmic reticulum (ER), which is a storage of calcium ions in a cell, such that the concentration of calcium ions in the cell is increased. Based on an existing study result, an in vitro screening assay system capable of detecting a material capable of suppressing the concentration of calcium ions in the cell from being increased by activation of PAR-2 was constructed. As a PAR-2 activating agent, activating peptide (AP) was used, and as a reagent for detecting the concentration of calcium ion in the cell, a Calcium-4 assay kit produced (Molecular Probe). […]
The inhibitory activity of the synthesized materials against the PAR-2 was evaluated using the protocol as described above, and profiles of the assay for Compounds 45 and 73 prepared in Examples 1 and 2 were shown in FIGS. 1 and 2.

In data set [4] the test system is oxazolone induced chronic dermatitis. Briefly: Oxazolone induced chronic dermatitis animal model. In kind it is in vivo, hairless mouse (SKH-1). The following applies: hairless mice, applied once a day for 3 days. Here is the method:
Effects of the selected materials were evaluated using chronic dermatitis animal model. Oxazolone induced chronic dermatitis animal model by continuously applying oxazolone, which is a kind of hapten, to a hairless mouse was used. It was reported that various symptoms of atopic dermatitis relatively accurately appear in recently developed oxazolone model, and the present inventors also confirmed through the prior study that various symptoms of general atopic dermatitis appear similarly to clinically appearing symptoms. In order to construct the chronic dermatitis animal model, 5% oxazolone was applied and sensitized to the hairless mice (SKH-1, 6 weeks old). After 1 week, 0.1% oxazolone was applied every other day for 2 weeks, thereby induced the symptoms of dermatitis. After samples were applied to the dermatitis induced animal once a day for 3 days, changes in various skin functions and a skin thickness were observed. Finally, biopsy was performed on skin tissue, and histological observation was conducted. As a positive control group used in the experiment, 0.05% desonide formulation, which is a steroid having relatively weak potency, was used, and changes in trans-epidermal water loss (TEWL) skin hydration in stratum cornea, and skin thickness were observed.

`Cc1cccc(-c2c(C)nc3ccc(C(=O)N4CCCCC4)cn23)c1` [Compound 45]: the “activation of the PAR-2 (Flag/Myc double staining, merged image)” value on PAR-2 [1] is “activation of the PAR-2 was suppressed”. Besides, in “Cytotoxicity (CC50)”, the CC50 is over 100 µM. For the same molecule, the IC50 on PAR-2 [2] amounted to 339 µM; at PAR-2 [3] it was 73.8 µM. The “trans-epidermal water loss (TEWL)” value in data set [4] (FIG. 5) is given as “effectively restore”. In addition, the “skin hydration in stratum cornea” value in data set [4] (FIG. 6) is given as “effectively restore”. For the same molecule, in data set [4] (FIG. 7), the skin thickness result is recorded as “statistically significant improvement effect”.
In turn, `Cc1nc2ccc(C(=O)N3CCN(C(=O)C4CCCCC4)CC3)cn2c1-c1ccccc1` [Compound 73, (4-(cyclohexanecarbonyl)piperazin-1-yl)(2-methyl-3-phenylimidazo[1,2-a]pyridin-6-yl)methanone] registered a CC50 in the data set “Cytotoxicity (CC50)” of over 100 µM. The IC50 is 401 µM on PAR-2 [2] and 76.7 µM on PAR-2 [3].
